# Data published in patent US8110544B2, “RasGAP derived peptide for selectively killing cancer cells” (Universite de Lausanne, priority 2003, dated 2012).
# Legend:
# Assay type in all cases: cell-based, human
# [1] = test system: HeLa, U2OS, H-Meso1, MCF-7, HaCat and HUV-EC-C cell lines; assay: Cellular uptake of FITC-labelled peptide (epifluorescence of live cells); settings: FITC-labelled peptide 20 μM
# Experimental: The following cell lines (HeLa, U2OS, H-Meso1, MCF-7, HaCat and HUV-EC-C) were incubated 3 hours at 37° C., 5% CO2 in culture medium with 20 μM FITC-labelled TAT-RasGAP317-326 peptide and then washed three times with culture medium.
# Fluorescein isothiocyanate (FITC)-labeling was performed on the sequence β-alanine-[…] (SEQ ID NO: 16) whose side chain Fmoc-protected amino acids were Arg(bpf), Lys(Boc), Gln(Trt), Trp(Boc), Thr(tBu), Asn(Trt), and Asp(OtBu). The peptide was synthesized stepwise on 0.2 mmol Rink Amide AM resin using Fmoc chemistry. The synthesis was monitored by ninhydrin test. After the coupling of β-alanine, the Fmoc group was removed with 20% piperidine in dimethylformamide (DMF). At this stage, a fluorescein group was conjugated to the N-terminus of peptide with FITC (5 fold excess over the substitution of the resin in 4 ml DMF and 1 ml N-ethyldiisopropylamine) to form the fluorescein-derivated peptide.
# If a plasmid encoding amino acid 317-326 of RasGAP has the ability to enhance the ability of a drug to kill cancer cells, a synthetic peptide corresponding to the […] should also display this activity provided that it can penetrate cells. […] We first assessed the sensitivity of the cancer cell lines towards increasing concentrations of the three genotoxins (data not shown). […]
# [2] = test system: cancer cell lines (HeLa, U2OS, MCF-7, and H-Meso1); assay: Genotoxin-induced apoptosis (pycnotic nuclei) in cancer cell lines with or without peptides; settings: 20 μM peptide
# Experimental: Four cancer cell lines (HeLa, U2OS, MCF-7, and H-Meso1) were plated in 6-wells plates and treated with the indicated concentrations of cisplatin, adriamycin and mitoxantrone in the absence or in the presence of either 20 μM MV-TAT48-57 Or TAT-RaSGAP317-326 peptides for 20 hours. The number of cells displaying pycnotic nucleus was then scored. The results correspond to the mean±standard deviation of three independent determinations. Asterisks denote significant differences between the genotoxin-treated cells incubated with TAT-RaSGAP317-326 and those left untreated or incubated with the HIV-TAT48-57 peptide (**, p<0.01; ***, p<0.001).
# Apoptosis was determined by scoring the number of cells displaying pycnotic nuclei. Nuclei of live cells were labeled with Hoechst 33342 (10 μg/ml final concentration) for about 5 minutes and the cells were then analyzed (at least 400 cells per condition) using an inverted Leica DMIRB microscope equipped with fluorescence and transmitted light optics. Assessment of apoptosis was performed one day after the transfection or treatment of the cells. In experiment involving transfected cells, pEGFP-C1 was included in the transfection solution to label the transfected cells with GFP. In this case, the extent of apoptosis was assessed in the transfected cells only. […]
# [3] = test system: NFκB activity; assay: NFκB firefly luciferase reporter assay in U2OS cells; settings: 20 hours
# Experimental: U2OS Cells (1×10^5) were plated in 6 well plates and transfected with 1 μg of a firefly luciferase reporter plasmid for NFκB activity and 0.1 μg of a plasmid encoding the Renilla luciferase. The cells were treated one day later with the indicated concentrations of cisplatin in the absence or in the presence of 20 μM HV-TAT48-57 or TAT-RaSGAP317-326 peptides during 20 hours. The data represent the firefly luciferase activity normalized to the Renilla luciferase activity and expressed as fold increase of the basal NFκB activity obtained in control untreated cells. The results correspond to the mean±standard deviation of three independent determinations. Asterisks denote significant differences between the indicated conditions (**, p<0.01; ***, p<0.001).
# (§1) U2OS cells were transfected with 1 μg of a firefly luciferase reporter plasmid for NFκB activity, 0.1 μg of a plasmid encoding the Renilla luciferase, 0.5 μg of a GFP-expressing plasmid (to label the transfected cells), 1 μg of a plasmid encoding IκBαΔN2 that inhibit the NFκB pathway or with 1 μg an empty pcDNA3 vector. The cells were incubated one day later with increasing concentrations of cisplatin in the presence of 20 μM HIV-TAT48-57 or 20 μM TAT-RasGAP317-326 for an additional 20 hour period. The cells were then lysed and the NFκB activity assessed as described in panel A, except that the results were expressed as fold increase of the NFκB activity detected in cells incubated with the control HV-TAT48-57 peptide.
# Luciferase assay was performed using the Dual-Luciferase® Reporter Assay from Promega (cat. no E1910). […] The firefly luciferase activity was recorded by mixing 20 μl of the lysate with 25 μl of the LARII Reagent and the Renilla luciferase activity was recorded by adding to the previous mix 25 μl of the Stop & Glo Reagent. For each measurement, light emission was quantified during 12 seconds using a Lumat LB 9501 luminometer (Berthold Technologies, Zurich, Switzerland).
# [4] = test system: U2OS cells; assay: Apoptosis of transfected (GFP-positive) U2OS cells with or without IκBαΔN2; settings: 20 μM peptide, IkBαΔN2 expressed, 20 hours
# Experimental: as §1
# Alternatively, the number of GFP-positive cells displaying pycnotic nucleus was determined. The results correspond to the mean±standard deviation of three independent determinations.
# Apoptosis was determined by scoring the number of cells displaying pycnotic nuclei. Nuclei of live cells were labeled with Hoechst 33342 (10 μg/ml final concentration) for about 5 minutes and the cells were then analyzed (at least 400 cells per condition) using an inverted Leica DMIRB microscope equipped with fluorescence and transmitted light optics. […] In this case, the extent of apoptosis was assessed in the transfected cells only.
# [5] = test system: JNK; assay: Western blot of phospho-JNK in U2OS cells; settings: 20 μM peptide
# Experimental: (§2) U2OS cells (2×10^5) were plated in 6 well plates and treated for the indicated periods of time with the indicated combinations of the HW-TAT48-57 or TAT-RasGAP317-326 peptides (at a 20 μM concentration) and cisplatin (at a 30 μM concentration). Positive controls for JNK and p38 activation were obtained following stimulation of the cells with 1 μg/ml anisomycine during 3 hours and with 0.5 M sorbitol for 30 min, respectively. The quantitations depicted under the Western blots were performed on the 12-hour bands and normalized against the positive controls. The results correspond to the mean±standard deviation of three independent experiments. […]
# [6] = test system: p38 MAPKs; assay: Western blot of phospho-p38 in U2OS cells; settings: 20 μM peptide
# Experimental: as §2
sequence,measurement,setting,value
GRKKRRQRRRGGWMWVTNLRTD [TAT-RasGAP317-326],difference in translocation between non cancer cells and cancer cells,[1]; 3 hours,No difference in translocation
same,cellular uptake of the peptide,"[1]; 3 hours at 37° C., four tumor and two non cancer cell lines",efficiently entered all these cell lines
same,"enhancement of the ability of cisplatin, adriamycin and mitoxantrone to kill cancer cell lines","[2]; 20 hours, sub-lethal genotoxin concentrations","enhanced the ability of cisplatin, adriamycin, and mitoxantrone to kill the tested cancer cell lines"
same,apoptosis induced in control conditions (no genotoxin),[2]; cancer cell lines,"did not, or only marginally, induce apoptosis in control conditions"
same,NFkB activation in U2OS cells (single agent),[3]; 20 μM peptide or cisplatin,activated
same,NFkB activation with both cisplatin and peptide,"[3]; U2OS cells, cisplatin plus 20 μM peptide",additive activation of NFkB
same,potency to enhance cisplatin killing of U2OS cells in presence of NFkB inhibitor,[4],unaffected by the NFkB inhibitor
same,activation of JNK pathway by peptide alone,[5],neither the control HIV-TAT48-57 peptide nor the TAT-RasGAP317-326 peptide activated these MAPK pathways
same,activation of p38 MAPK pathway by peptide alone,[6],neither the control HIV-TAT48-57 peptide nor the TAT-RasGAP317-326 peptide activated these MAPK pathways
